pIC50: −log10 of the molar value. Some results are limits rather than exact numbers.

Complement factor D, sequence (P00746 whole entry): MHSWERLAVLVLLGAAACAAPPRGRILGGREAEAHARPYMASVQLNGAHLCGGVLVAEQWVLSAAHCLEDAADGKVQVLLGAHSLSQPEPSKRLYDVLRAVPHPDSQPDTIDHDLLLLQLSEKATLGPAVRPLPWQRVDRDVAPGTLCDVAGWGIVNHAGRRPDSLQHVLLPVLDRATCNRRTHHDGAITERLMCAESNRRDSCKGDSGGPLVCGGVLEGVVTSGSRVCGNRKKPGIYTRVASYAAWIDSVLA

This assay has as its target Complement factor D (Homo sapiens, UniProt P00746). As to the kind of experiment: Inhibition Assay. As for the experimental part: Human Factor D (purified from human serum, Complement Technology, Inc.) at 80 nM final concentration is incubated with test compound at various concentrations for 5 minutes at room temperature in 50 mM Tris, 1M NaCl, pH 7.5. A synthetic substrate Z-L-Lys-SBzl and DTNB (Ellman's reagent) are added to final concentrations of 100 µM each. Absorbance at 405 nm (A405) is recorded at 30 second intervals for 30 minutes using a microplate spectrophotometer. IC50 values are calculated by nonlinear regression of complement Factor D reaction rates as a function of test compound concentration.
Usually IC50 stands for the point on the concentration scale where inhibition reaches its midpoint. Take `CC(=O)c1cn(CC(=O)N2C[C@H](F)C[C@H]2C(=O)NCc2cccc(Cl)c2F)c2cc(N(CC(=O)N3C[C@H](F)C[C@H]3C(=O)NCc3cccc(Cl)c3F)S(C)(=O)=O)ccc12` [US10660876, Cmpd No. 1]: the IC50 entry is “in the range around 5.5 µM”.
For `CC(=O)c1cn(CC(=O)N2C[C@H](F)C[C@H]2C(=O)NCc2nc3ccccc3s2)c2ccc(Nc3cncnc3)cc12` [US10660876, Cmpd No. 16], the IC50 result is “in the range around 5.5 µM”.
Consider `CNC(=O)[C@@H]1C[C@@H](F)CN1C(=O)Cn1cc(C(C)=O)c2cc(Nc3cncnc3)ccc21` [US10660876, Cmpd No. 20], for which the IC50 entry is “in the range around 5.5 µM”.
In the case of `CC(=O)c1cn(CC(=O)N2C[C@H](F)C[C@H]2C(=O)Nc2ccccc2-n2nccc2C)c2ccc(Nc3cncnc3)cc12` [US10660876, Cmpd No. 30], the IC50 result is “in the range around 5.5 µM”.
For orientation: pIC50 means the negative decadic logarithm of the IC50, by convention in mol/L. Read a high pIC50 as a low IC50. For the compound `CC(=O)c1cn(CC(=O)N2C[C@H](F)C[C@H]2C(=O)Nc2ccccc2-c2nc3ccccc3s2)c2ccc(Nc3cncnc3)cc12` [US10660876, Cmpd No. 32], the pIC50 was less than 5.00.
With `CC(=O)c1cn(CC(=O)N2C[C@H](F)C[C@H]2C(=O)Nc2nnc(-c3ccccc3Cl)s2)c2ccc(Nc3cncnc3)cc12` [US10660876, Cmpd No. 34], the IC50 result was “in the range around 5.5 µM”.
As to `CC(=O)c1cn(CC(=O)N2C[C@H](F)C[C@H]2C(=O)N[C@H]2CCCC[C@@H]2O)c2ccc(Nc3cncnc3)cc12` [US10660876, Cmpd No. 36], the IC50 result was “in the range around 5.5 µM”.
With `CC(=O)c1cn(CC(=O)N2C[C@H](F)C[C@H]2C(=O)Nc2cccc(Cl)c2-n2cncn2)c2ccc(Nc3cncnc3)cc12` [US10660876, Cmpd No. 37], the IC50 entry is “in the range around 5.5 µM”.
Consider `CC(=O)c1cn(CC(=O)N2C[C@H](F)C[C@H]2C(=O)Nc2ccccc2N2CCOC2=O)c2ccc(Nc3cncnc3)cc12` [US10660876, Cmpd No. 40], for which the IC50 result was “in the range around 5.5 µM”.
The same measure, in the same setting: then `CC(=O)c1cn(CC(=O)N2C[C@H](F)C[C@H]2C(=O)Nc2nc(-c3c(C)nc4sccn34)cs2)c2ccc(Nc3cncnc3)cc12` [US10660876, Cmpd No. 49], with “in the range around 5.5 µM”; and `CC(=O)c1cn(CC(=O)N2C[C@H](F)C[C@H]2C(=O)NC2CCc3c(F)ccc(F)c32)c2ccc(Nc3cncnc3)cc12` (some centres undefined) [US10660876, Cmpd No. 51], with “in the range around 5.5 µM”; and `CC(=O)c1cn(CC(=O)N2C[C@H](F)C[C@H]2C(=O)Nc2ccc(CN)cc2)c2ccc(Nc3cncnc3)cc12` [US10660876, Cmpd No. 53], with “in the range around 5.5 µM”.
On the same count and under the same terms, then `COc1cc(C)cc2c1OCCC2NC(=O)[C@@H]1C[C@@H](F)CN1C(=O)Cn1cc(C(C)=O)c2cc(Nc3cncnc3)ccc21` (some centres undefined) [US10660876, Cmpd No. 54], with “in the range around 5.5 µM”; and `CC(=O)c1cn(CC(=O)N2C[C@H](F)C[C@H]2C(=O)Nc2c[nH]nc2-c2ccc(Cl)cc2Cl)c2ccc(Nc3cncnc3)cc12` [US10660876, Cmpd No. 55], with “in the range around 5.5 µM”.

The record behind these values is BindingDB's records for patent US10660876 (Achillion Pharmaceuticals, 2020).
